Converted amounts (≈) assume the structure as drawn.
Tests used:
Assay in all cases: Clonogenic assay, colony formation of tumor stem cells from xenografts
Format in all cases: cell-based, human
LXFE 409 = conditions: Lung, non small cell, xenograft LXFE 409, colony formation
Procedure: (§1) Using various human cancer xenografts in vitro, the concentrations of compound B which inhibit formation of tumor colonies of tumor stem cells by 50% (IC50) and 70% (IC70) are determined in a clonogenic assay. Specifically, each solid tumor of bladder cancer (BXF 1036 and BXF 1299), cervical cancer (CEXF 633 and CEXF 773), colic cancer (CXF 1103, CXF 158, CXF 1729, CXF 264 and CXF 280), gastric cancer (GXF 251 and GXF 97), head and neck cancer (HNXF 536), liver cancer (LIXF 575), non small cell lung cancer comprising adeno, squamous epithelium and large cell carcinoma (LXFA 1012, LXFA 289, LXFA 297, LXFA 526, LXFA 592, LXFA 629, LXFA 677, LXFE 409, LXFL 1072, LXFL 430LX and LXFL 529), small cell lung cancer (LXFS 650), mammary cancer (MAXF 1162, MAXF 1384, MAXF 401, MAXF 449, MAXF 574, MAXF 583, MAXF 713 and MAXF 857), melanoma (MEXF 1341, MEXF 462, MEXF 535 and MEXF 989), ovary cancer (OVXF 899), pancreatic cancer (PAXF 546 and PAXF 736), prostate cancer (DU-145 and PC3M), pleuramesothelioma (PXF 1752), renal cancer (RXF 1220, RXF 1393, RXF 393, RXF 631 and RXF 944LX), and sarcoma (SXF 1301 and SXF 463) engrafted on RPMI nu/nu thymus aplastic nude mice were explanted, disaggregated by mincing and enzymatic digestion for 50 minutes using 125 U/mL DNAse I, 41 U/mL collagenase IV, 100 U/ml hyaluronidase III, and 1 U/mL dispase I, and passed through sieves of 200 µm and 50 µm mesh size and washed twice with sterile PBS-buffer to remove cell aggregated from single cells. The clonogenic assay was performed in a 24 multiwell format. Each of the resulting single cell suspensions was added at a density of 2·10^4 to 6·10^4 cells per well to 0.2 ml of Iscove's Modified Dulbecco's Medium (IMDM) containing 20% fetal calf serum and 0.01% gentamicin supplemented with 0.4% (w/v) agar, and plated onto a bottom layer consisting of the same culture medium containing 0.75% (w/v) agar. After 24 hours IMDM containing 20% fetal calf serum and 0.01 % gentamicin, together with a test compound, was added there to. Then, the plate was incubated at 37°C for 10 to 20 days in a humidified atmosphere of air containing 7.5% CO2. Within this period, in vitro tumor growth led to the formation of colonies with a diameter of > 50µm. Colony counts were performed with an automatic image analysis system (OMNICON 3600). 24 hours prior to evaluation, vital colonies were stained with a vital staining dye. Therefore, 100 µl of a sterile aqueous solution of 2-(4-iodophenyl)-3-(4-nitrophenyl)-5-phenyltetrazolium chloride (1 mg/ml) were added to each well of the plate, and plates were incubated for 24 hours at 37°C in a humidified atmosphere of air containing 7.5% CO2. Inhibition of colony formation was expressed as test versus untreated control (T/C-value [%]). IC50 and IC70 values were determined by plotting compound concentration versus cell viability. Table 3: Inhibition of Colony Formation of Tumor Stem Cells by griseusin derivative B

MAXF 449 = conditions: Breast, xenograft MAXF 449, colony formation
Procedure: as §1

LXFL 1072 = conditions: Lung, non small cell, xenograft LXFL 1072, colony formation
Procedure: as §1

MEXF 1341 = conditions: Melanoma, xenograft MEXF 1341, colony formation
Procedure: as §1

LXFL 529 = conditions: Lung, non small cell, xenograft LXFL 529, colony formation
Procedure: as §1

RXF 1220 = conditions: Kidney, xenograft RXF 1220, colony formation
Procedure: as §1

BXF 1036 = conditions: Bladder, xenograft BXF 1036, colony formation
Procedure: as §1

LXFA 592 = conditions: Lung, non small cell, xenograft LXFA 592, colony formation
Procedure: as §1

CXF 280 = conditions: Colon, xenograft CXF 280, colony formation
Procedure: as §1

HNXF 536 = conditions: Head and Neck, xenograft HNXF 536, colony formation
Procedure: as §1

MEXF 462 = conditions: Melanoma, xenograft MEXF 462, colony formation
Procedure: as §1

MAXF 574 = conditions: Breast, xenograft MAXF 574, colony formation
Procedure: as §1

OVXF 899 = conditions: Ovary, xenograft OVXF 899, colony formation
Procedure: as §1

MEXF 535 = conditions: Melanoma, xenograft MEXF 535, colony formation
Procedure: as §1

LXFA 289 = conditions: Lung, non small cell, xenograft LXFA 289, colony formation
Procedure: as §1

PXF 1752 = conditions: Pleuramesothelio, xenograft PXF 1752, colony formation
Procedure: as §1

MAXF 713 = conditions: Breast, xenograft MAXF 713, colony formation
Procedure: as §1

CXF 1729 = conditions: Colon, xenograft CXF 1729, colony formation
Procedure: as §1

SMILES: C[C@@H]1CC(=O)[C@@H](O)[C@]2(O1)O[C@@H]1CC(=O)O[C@@H]1C1=C2C(=O)c2c(O)cccc2C1=O [Compound B, 4'-dehydro-deacetylgriseusin A]
- IC50 (LXFE 409): 1.732 µg/mL (≈ 4.33 µM)
- IC70 (LXFE 409): 2.249 µg/mL (≈ 5.62 µM)
- IC50 (MAXF 449): 0.400 µg/mL (≈ 0.999 µM)
- IC70 (MAXF 449): 0.648 µg/mL (≈ 1.62 µM)
- IC50 (LXFL 1072): 0.252 µg/mL (≈ 0.629 µM)
- IC70 (LXFL 1072): 0.468 µg/mL (≈ 1.17 µM)
- IC50 (MEXF 1341): 0.462 µg/mL (≈ 1.15 µM)
- IC70 (MEXF 1341): 0.673 µg/mL (≈ 1.68 µM)
- IC50 (LXFL 529): 0.364 µg/mL (≈ 0.909 µM)
- IC70 (LXFL 529): 0.699 µg/mL (≈ 1.75 µM)
- IC50 (RXF 1220): 0.782 µg/mL (≈ 1.95 µM)
- IC70 (RXF 1220): 0.952 µg/mL (≈ 2.38 µM)
- IC50 (BXF 1036): 1.743 µg/mL (≈ 4.35 µM)
- IC70 (BXF 1036): 2.271 µg/mL (≈ 5.67 µM)
- IC50 (LXFA 592): 0.215 µg/mL (≈ 0.537 µM)
- IC70 (LXFA 592): 0.468 µg/mL (≈ 1.17 µM)
- IC50 (CXF 280): 0.379 µg/mL (≈ 0.947 µM)
- IC70 (CXF 280): 0.609 µg/mL (≈ 1.52 µM)
- IC50 (HNXF 536): 0.350 µg/mL (≈ 0.874 µM)
- IC70 (HNXF 536): 0.547 µg/mL (≈ 1.37 µM)
- IC50 (MEXF 462): 1.666 µg/mL (≈ 4.16 µM)
- IC70 (MEXF 462): 2.152 µg/mL (≈ 5.38 µM)
- IC50 (MAXF 574): 0.335 µg/mL (≈ 0.837 µM)
- IC70 (MAXF 574): 0.523 µg/mL (≈ 1.31 µM)
- IC50 (OVXF 899): 0.468 µg/mL (≈ 1.17 µM)
- IC70 (OVXF 899): 0.731 µg/mL (≈ 1.83 µM)
- IC50 (MEXF 535): 0.055 µg/mL (≈ 0.137 µM)
- IC70 (MEXF 535): 0.094 µg/mL (≈ 0.235 µM)
- IC50 (LXFA 289): 0.218 µg/mL (≈ 0.545 µM)
- IC70 (LXFA 289): 0.425 µg/mL (≈ 1.06 µM)
- IC50 (PXF 1752): 0.811 µg/mL (≈ 2.03 µM)
- IC70 (PXF 1752): 1.253 µg/mL (≈ 3.13 µM)
- IC50 (MAXF 713): 0.498 µg/mL (≈ 1.24 µM)
- IC70 (MAXF 713): 0.700 µg/mL (≈ 1.75 µM)
- IC50 (CXF 1729): 0.453 µg/mL (≈ 1.13 µM)
- IC70 (CXF 1729): 0.630 µg/mL (≈ 1.57 µM)

— patent EP1650209A1, “Griseusin derivatives and their use as antitumor agents” (Oncotest GmbH, priority 2004, dated 2006)
